Results from patent US9073918B2, “Pyrazolo[4,3-b]pyridine-7-amine inhibitors of ALK5” (Takeda Pharmaceutical Company Limited, priority 2010, dated 2015).

Target: T1, TGF-β R1 ALK5 (Homo sapiens, UniProt P36897)
T1 construct: purchased Invitrogen PV5837
T1 sequence (P36897 34-503): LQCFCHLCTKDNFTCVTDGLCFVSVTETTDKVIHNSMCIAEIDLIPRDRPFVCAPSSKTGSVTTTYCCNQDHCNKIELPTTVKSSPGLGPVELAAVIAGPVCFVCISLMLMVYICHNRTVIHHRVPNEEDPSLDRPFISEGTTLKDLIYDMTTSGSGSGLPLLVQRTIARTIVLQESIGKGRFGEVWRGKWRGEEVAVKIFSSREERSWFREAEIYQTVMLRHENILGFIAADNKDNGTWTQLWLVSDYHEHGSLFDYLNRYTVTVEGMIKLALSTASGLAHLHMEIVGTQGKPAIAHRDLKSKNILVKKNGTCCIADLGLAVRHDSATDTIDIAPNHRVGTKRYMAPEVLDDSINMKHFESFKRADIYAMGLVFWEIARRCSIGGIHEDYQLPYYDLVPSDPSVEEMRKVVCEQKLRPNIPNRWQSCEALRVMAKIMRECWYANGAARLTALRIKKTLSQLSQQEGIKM
Assay: In vitro inhibition of ALK5 (LanthaScreen activity assay, TR-FRET)
Assay type: biochemical
Method: Test compounds were screened for TGF-β R1 ALK5 inhibition by use of a LanthaScreen™ activity assay (PV5837 Invitrogen, Invitrogen Corp. Madison, Wis.).
In brief, the assay procedure was as follows:
Solutions of test compounds were prepared in DMSO and diluted two-fold serially.
Assays were incubated for 90 minutes at room temperature and then quenched by the addition of 60 mM EDTA and 8 nM Terbium labeled anti-pSMAD3 Antibody (M4337 from Invitrogen) giving a final concentration of 15 mM EDTA and 2 nM Terbium labeled anti-pSMAD3 Antibody. Phosphorylated peptide product was quantified by measuring an increase in TR-FRET on a BMG LABTECH PHERA star plus. Response is defined as the ratio of Channel A/Channel B. The response of a blank (uninhibited) using vehicle alone is also determined. Enzyme activity was defined as the response of uninhibited enzyme activity minus the response of assays containing no enzyme. The percent inhibition of ALK5 at a given compound concentration is defined as: 100%×[1−(response compound/response blank)]
where response compound is defined as the enzyme activity in the presence of test compound and response blank is defined as the uninhibited enzyme activity. The pIC50 value (negative log of the molar concentration of the compound that produces 50% inhibition) of a test compound is calculated by non-linear least squares curve fitting of the equation: Percent Inhibition=100%/(1+(10−pIC50/10 log [I])).
Where inhibition was measured in multiple experiments the value in Table 1 is an average. N.T. means not tested.

IC50 | Compound
316 nM | O=C1NCCN1CCn1ncc2nccc(Nc3ccnc(-c4cc(Cl)ccc4F)c3)c21 [Example 41, 1-(2-(7-(2-(5-chloro-2-fluorophenyl)pyridin-4-ylamino)-1H-pyrazolo[4,3-b]pyridin-1-yl)ethyl)imidazolidin-2-one]
316 nM | O=C(Cn1ncc2nccc(Nc3ccnc(-c4cc(Cl)ccc4F)c3)c21)N1CCOCC1 [Example 42, 2-(7-(2-(5-chloro-2-fluorophenyl)pyridin-4-ylamino)-1H-pyrazolo[4,3-b]pyridin-1-yl)-1-morpholinoethanone]
31.6 nM | NC(=O)Cn1ncc2nccc(Nc3ccnc(-c4cc(Cl)ccc4F)c3)c21 [Example 44, 2-(7-(2-(5-chloro-2-fluorophenyl)pyridin-4-ylamino)-1H-pyrazolo[4,3-b]pyridin-1-yl)acetamide]
50.1 nM | CC(C(N)=O)n1cc2nccc(Nc3ccnc(-c4cc(Cl)ccc4F)c3)c2n1 (stereo not drawn) [Example 45, 2-(7-(2-(5-chloro-2-fluorophenyl)pyridin-4-ylamino)-2H-pyrazolo[4,3-b]pyridin-2-yl)propanamide]
12.6 nM | CCS(=O)(=O)n1cc2nccc(Nc3cc(-c4cc(Cl)ccc4F)ncc3C)c2n1 [Example 56, N-(2-(5-chloro-2-fluorophenyl)-5-methylpyridin-4-yl)-2-(ethylsulfonyl)-2H-pyrazolo[4,3-b]pyridin-7-amine]
39.8 nM | Cc1cc(Nc2ccnc3cn[nH]c23)cc(-c2cc(Cl)ccc2F)n1 [Example 57, N-(2-(5-chloro-2-fluorophenyl)-6-methylpyridin-4-yl)-1H-pyrazolo[4,3-b]pyridin-7-amine]
316 nM | CCNC(=O)n1ncc2nccc(Nc3cc(C)nc(-c4cc(Cl)ccc4F)c3)c21 [Example 59, 7-(2-(5-chloro-2-fluorophenyl)-6-methylpyridin-4-ylamino)-N-ethyl-1H-pyrazolo[4,3-b]pyridine-1-carboxamide]
251 nM | CCS(=O)(=O)n1cc2nccc(Nc3cc(C)nc(-c4cc(Cl)ccc4F)c3)c2n1 [Example 61, N-(2-(5-chloro-2-fluorophenyl)-6-methylpyridin-4-yl)-2-(ethylsulfonyl)-2H-pyrazolo[4,3-b]pyridin-7-amine]
12.6 nM | CCNC(=O)n1ncc2nccc(Nc3ccnc(-c4cc(Cl)c(F)cc4F)c3)c21 [Example 62, 7-(2-(5-chloro-2,4-difluorophenyl)pyridin-4-ylamino)-N-ethyl-1H-pyrazolo[4,3-b]pyridine-1-carboxamide]
126 nM | Cc1ccc(F)c(-c2cc(Nc3ccnc4c[nH]nc34)ccn2)n1 [Example 64, N-(3′-fluoro-6′-methyl-2,2′-bipyridin-4-yl)-2H-pyrazolo[4,3-b]pyridin-7-amine]
158 nM | Cc1ccc(F)c(-c2cc(Nc3ccnc4cn(CCO)nc34)ccn2)n1 [Example 72, 2-(7-(3′-fluoro-6′-methyl-2,2′-bipyridin-4-ylamino)-2H-pyrazolo[4,3-b]pyridin-2-yl)ethanol]
39.8 nM | CNC(=O)n1ncc2nccc(Nc3ccnc(-c4nc(C)ccc4F)c3)c21 [Example 74, 7-(3′-fluoro-6′-methyl-2,2′-bipyridin-4-ylamino)-N-methyl-1H-pyrazolo[4,3-b]pyridine-1-carboxamide]
25.1 nM | CNC(=O)n1ncc2nccc(Nc3ccnc(-c4cc(C)ccc4F)c3)c21 [Example 75, 7-(2-(2-fluoro-5-methylphenyl)pyridin-4-ylamino)-N-methyl-1H-pyrazolo[4,3-b]pyridine-1-carboxamide]

Continued, compound first:

Compound | IC50
Cc1cnc(-c2cc(Cl)ccc2F)nc1Nc1ccnc2cnn(CC(N)=O)c12 [Example 3, 2-(7-(2-(5-chloro-2-fluorophenyl)-5-methylpyrimidin-4-ylamino)-1H-pyrazolo[4,3-b]pyridin-1-yl)acetamide] | 6.31 nM
Cc1cnc(-c2cc(Cl)ccc2F)nc1Nc1ccnc2cn(CC(N)=O)nc12 [Example 4, 2-(7-(2-(5-chloro-2-fluorophenyl)-5-methylpyrimidin-4-ylamino)-2H-pyrazolo[4,3-b]pyridin-2-yl)acetamide] | 6.31 nM
Cc1ccc(F)c(-c2cc(Nc3ccnc4cn(CC(C)(C)O)nc34)c(C)cn2)n1 [Example 8, 1-(7-(3′-fluoro-5,6′-dimethyl-2,2′-bipyridin-4-ylamino)-2H-pyrazolo[4,3-b]pyridin-2-yl)-2-methylpropan-2-ol] | 251 nM
Cc1ccc(F)c(-c2cc(Nc3ccnc4cn(CCO)nc34)c(C)cn2)n1 [Example 9, 2-(7-(3′-fluoro-5,6′-dimethyl-2,2′-bipyridin-4-ylamino)-2H-pyrazolo[4,3-b]pyridin-2-yl)ethanol] | 7.94 nM
Cc1ccc(F)c(-c2cc(Nc3ccnc4cn[nH]c34)c(C)cn2)n1 [Example 11, N-(3′-fluoro-5,6′-dimethyl-2,2′-bipyridin-4-yl)-1H-pyrazolo[4,3-b]pyridin-7-amine] | 2.51 nM
Cc1cccc(-c2cc(Nc3ccnc4cn(CC(N)=O)nc34)c(C)cn2)n1 [Example 12, 2-(7-(5,6′-dimethyl-2,2′-bipyridin-4-ylamino)-2H-pyrazolo[4,3-b]pyridin-2-yl)acetamide] | 31.6 nM
Cc1ccc(F)c(-c2cc(Nc3ccnc4cnn(CC(N)=O)c34)c(C)cn2)n1 [Example 13, 2-(7-(3′-fluoro-5,6′-dimethyl-2,2′-bipyridin-4-ylamino)-1H-pyrazolo[4,3-b]pyridin-1-yl)acetamide] | 2.51 nM
Cc1ccc(F)c(-c2cc(Nc3ccnc4cn(CC(N)=O)nc34)c(C)cn2)n1 [Example 14, 2-(7-(3′-fluoro-5,6′-dimethyl-2,2′-bipyridin-4-ylamino)-2H-pyrazolo[4,3-b]pyridin-2-yl)acetamide] | 10 nM
Fc1ccc(Cl)cc1-c1cc(Nc2ccnc3cn(CC4CCOCC4)nc23)ccn1 [Example 23, N-(2-(5-chloro-2-fluorophenyl)pyridin-4-yl)-2-((tetrahydro-2H-pyran-4-yl)methyl)-2H-pyrazolo[4,3-b]pyridin-7-amine] | 316 nM
Fc1ccc(Cl)cc1-c1cc(Nc2ccnc3cnn(CC4CCOCC4)c23)ccn1 [Example 24, N-(2-(5-chloro-2-fluorophenyl)pyridin-4-yl)-1-((tetrahydro-2H-pyran-4-yl)methyl)-1H-pyrazolo[4,3-b]pyridin-7-amine] | 1580 nM
Fc1ccc(Cl)cc1-c1cc(Nc2ccnc3cn(CC4CCCO4)nc23)ccn1 (stereo not drawn) [Example 25, N-(2-(5-chloro-2-fluorophenyl)pyridin-4-yl)-2-((tetrahydrofuran-2-yl)methyl)-2H-pyrazolo[4,3-b]pyridin-7-amine] | 2510 nM
Fc1ccc(Cl)cc1-c1cc(Nc2ccnc3cnn(CC4CCNCC4)c23)ccn1 [Example 26, N-(2-(5-chloro-2-fluorophenyl)pyridin-4-yl)-1-(piperidin-4-ylmethyl)-1H-pyrazolo[4,3-b]pyridin-7-amine] | 2510 nM
NC(=O)n1ncc2nccc(Nc3ccnc(-c4cc(Cl)ccc4F)c3)c21 [Example 30, 7-(2-(5-chloro-2-fluorophenyl)pyridin-4-ylamino)-1H-pyrazolo[4,3-b]pyridine-1-carboxamide] | 50.1 nM
CN(C)C(=O)Cn1ncc2nccc(Nc3ccnc(-c4cc(Cl)ccc4F)c3)c21 [Example 38, 2-(7-(2-(5-chloro-2-fluorophenyl)pyridin-4-ylamino)-1H-pyrazolo[4,3-b]pyridin-1-yl)-N,N-dimethylacetamide] | 251 nM
